Reference: the supplement of paper PMC5579334
± gives the standard deviation of the averaged measurements.

What was measured:
[1] = test system: YST-1; test: % inhibition of CellTiter-Glo viability at highest tested concentration (72 h), relative to DMSO and benzethonium chloride controls; higher = more inhibition
In short: (§1)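 Viability was scored by CellTiter-Glo ATP luminescence, scaled from vehicle to positive-control wells, with duplicates averaged where present. The cells, MPNST lines and primary human Schwann cells at 750–1000 per well, sat 72 h at 37 °C, 5% CO2, in 384-well plates preprinted with each compound at five concentrations in 10-fold steps. Four-parameter logistic fits were run on the data. These fits give drug sensitivity score and relative IC50 censored at the top concentration, and percent inhibition is reported at the top concentration.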

[2] = test system: ST8814; test: as above
In short: as §1

[3] = test system: HS-Sch-2; test: as above
In short: as §1

[4] = test system: HSC1 (primary human Schwann cells); test: as above
In short: as §1

[5] = test system: S462; test: as above
In short: as §1

[6] = test system: STS26T; test: as above
In short: as §1

[7] = test system: S1507-2; test: as above
In short: as §1

[8] = test system: HSC2 (primary human Schwann cells); test: as above
In short: as §1

[9] = test system: HS-PSS; test: as above
In short: as §1

[10] = test system: YST-1; test: drug sensitivity score (DSS, CellTiter-Glo viability, 72 h) (DSS (dimensionless)); higher = more sensitive; extreme values may be limits of the assay
In short: as §1

[11] = test system: ST8814; test: as above
In short: as §1

[12] = test system: HS-Sch-2; test: as above
In short: as §1

[13] = test system: HSC1 (primary human Schwann cells); test: as above
In short: as §1

[14] = test system: S462; test: as above
In short: as §1

[15] = test system: STS26T; test: as above
In short: as §1

[16] = test system: S1507-2; test: as above
In short: as §1

[17] = test system: HSC2 (primary human Schwann cells); test: as above
In short: as §1

[18] = test system: HS-PSS; test: as above
In short: as §1

[19] = test system: ST8814; test: drug sensitivity score (DSS, CellTox-Green cytotoxicity, 72 h) (DSS (dimensionless)); higher = more cytotoxic; extreme values may be limits of the assay
In short: (§2)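 MPNST cell lines and primary human Schwann cells were incubated 72 h at 37 °C in 384-well plates holding five 10-fold compound dilutions. CellTox-Green was added before seeding at a final 1:1000 dilution and reported fluorescence from DNA released by disrupted cells. Signals were scaled to vehicle and positive-control wells, and cultures failing plate quality control were dropped. Drug sensitivity score and relative IC50 come from four-parameter logistic fits, with IC50 censored at the top concentration.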

[20] = test system: HSC1 (primary human Schwann cells); test: as above
In short: as §2

[21] = test system: STS26T; test: as above
In short: as §2

[22] = test system: S1507-2; test: as above
In short: as §2

[23] = test system: HSC2 (primary human Schwann cells); test: as above
In short: as §2

[24] = test system: HS-PSS; test: as above
In short: as §2

SMILES | % inhibition [1] | % inhibition [2] | % inhibition [3] | % inhibition [4] | % inhibition [5] | % inhibition [6] | % inhibition [7] | % inhibition [8] | % inhibition [9] | drug sensitivity score [10] | drug sensitivity score [11] | drug sensitivity score [12] | drug sensitivity score [13] | drug sensitivity score [14] | drug sensitivity score [15] | drug sensitivity score [16] | drug sensitivity score [17] | drug sensitivity score [18] | drug sensitivity score [19] | drug sensitivity score [20] | drug sensitivity score [21] | drug sensitivity score [22] | drug sensitivity score [23] | drug sensitivity score [24]
CNC(=O)c1cccc(-c2ccc3c(N4CCOC[C@@H]4C)nc(N4CCOC[C@@H]4C)nc3n2)c1 [AZD2014] (max concentration tested 10000 nM) | 79.2% | 78.5% | 71% | 87.4% | 66.2 ± 1.5% | 75.4% | 75.49 ± 0.4% | 87.1% | 69.8% | 17.9 | 10.7 | 11.7 | 15.2 | 11.1 ± 0.51 | 12 | 12.6 ± 1 | 15 | 10.4 | 0 | 0 | 0 | 0 | 0 | 0
CC[C@@H]1C(=O)N(C)c2cnc(Nc3ccc(C(=O)NC4CCN(C)CC4)cc3OC)nc2N1C1CCCC1 [BI 2536] (max concentration tested 1000 nM) | 54.1% | 84.1% | 66.8% | 62.9% | 101.6 ± 0.24% | 75.9% | 86.7 ± 3% | 79.4% | 61% | 20.5 | 22.1 | 24.5 | 13.3 | 28.42 ± 0.2 | 29.6 | 19.5 ± 0.21 | 17.4 | 15 | 19.5 | 11.3 | 32.3 | 15.6 ± 0.4 | 20.1 | 0.25
COc1cccc2cc(-c3nc([C@H]4CC[C@H](C(=O)O)CC4)n4ncnc(N)c34)[nH]c12 [OSI-027] (max concentration tested 10000 nM) | 78% | 53% | 49.1% | 84.8% | 58.2 ± 2.5% | 53.1% | 64.4 ± 4.5% | 80.9% | 26.6% | 9.46 | 5.6 | 2.33 | 10.7 | 7.41 ± 0.52 | 4.45 | 8.32 ± 1 | 8.56 | 0.84 | 0 | 0 | 0 | 2.04 ± 1.4 | 0 | 0
CNC(=O)c1cc(Oc2ccc(NC(=O)Nc3ccc(Cl)c(C(F)(F)F)c3)c(F)c2)ccn1 [Regorafenib] (max concentration tested 10000 nM) | 73% | 74.2% | 84.1% | 73.8% | 80.9 ± 5.1% | 49.9% | 33.7 ± 17% | 78.6% | 43% | 6.49 | 7.57 | 4.17 | 4.61 | 7.19 ± 0.46 | 4.35 | 2.21 ± 1.2 | 6.19 | 1.9 | 1.04 | 0 | 0.529 | 0 | 0 | 0
COc1cc2ncnc(Nc3ccc(F)c(Cl)c3)c2cc1OCCCN1CCOCC1 [Gefitinib] (max concentration tested 10000 nM) | 46.2% | 68.4% | 60.2% | 46.2% | 39.9 ± 12% | 53.6% | 49.1 ± 12% | 54.7% | 61.4% | 5.06 | 3.34 | 4.94 | 2.58 | 1.43 ± 0.69 | 2.37 | 2.3 ± 1.1 | 3.41 | 5.27 | 5.95 | 0 | 0.896 | 2.49 ± 3.5 | 0 | 0
Cc1cc2c(F)c(Oc3ncnn4cc(OC[C@@H](C)O)c(C)c34)ccc2[nH]1 [Brivanib] (max concentration tested 1000 nM) | 0.09% | -1.65% | -0.92% | -5.58% | 3.36 ± 7.5% | 4.35% | -1.44 ± 10% | -0.326% | -3.58% | 0 | 0 | 0 | 0 | 0 | 0 | 0 | 0 | 0 | 0 | 0 | 0 | 0 | 0 | 0
